Laboratory results published in patent US20240409574A1, “SMALL MOLECULES FOR DOT1L DEGRADATION AND USES THEREOF” (DANA-FARBER CANCER INSTITUTE, INC., priority 2021, published 2024).

Experiments:
EOL1 cells = experiment: Cell proliferation assay in EOL1 cells (trypan blue cell counts); format: cell-based, human; conditions: FIG. 3, 4B, 6B, 7, 8, 9B
Procedure: Example 15: Cell Proliferation Assays in EOL1 (Human Eosinophilic Leukaemia) Cells with Inventive Bifunctional Compounds
EOL1 cells were seeded into a 6-well plate at a density of 0.25×10^6 cells/well and then treated compounds with indicated concentration and incubated for the indicated times. After staining with trypan blue, cell counts were performed using a Countess® II FL Automated Cell Counter (ThermoFisher Scientific).

DOT1L [1] = target: T1, DOT1L (Homo sapiens, UniProt Q8TEK3); experiment: DOT1L fluorescence polarization (FP) displacement assay; format: binding; conditions: FIG. 1
Procedure: Example 13: Cellular Disruptor of Telomeric Silencing 1-Like (DOT1L) Fluorescence Polarization (FP) Displacement Assay
DOT1L FP displacement assays were conducted with inventive bifunctional compounds 2, 3, and 6, and pomalidomide and positive control EPZ5676 at different concentrations [M], measured in [M] per mP.
Target sequence in this assay (Q8TEK3 whole entry, species assumed): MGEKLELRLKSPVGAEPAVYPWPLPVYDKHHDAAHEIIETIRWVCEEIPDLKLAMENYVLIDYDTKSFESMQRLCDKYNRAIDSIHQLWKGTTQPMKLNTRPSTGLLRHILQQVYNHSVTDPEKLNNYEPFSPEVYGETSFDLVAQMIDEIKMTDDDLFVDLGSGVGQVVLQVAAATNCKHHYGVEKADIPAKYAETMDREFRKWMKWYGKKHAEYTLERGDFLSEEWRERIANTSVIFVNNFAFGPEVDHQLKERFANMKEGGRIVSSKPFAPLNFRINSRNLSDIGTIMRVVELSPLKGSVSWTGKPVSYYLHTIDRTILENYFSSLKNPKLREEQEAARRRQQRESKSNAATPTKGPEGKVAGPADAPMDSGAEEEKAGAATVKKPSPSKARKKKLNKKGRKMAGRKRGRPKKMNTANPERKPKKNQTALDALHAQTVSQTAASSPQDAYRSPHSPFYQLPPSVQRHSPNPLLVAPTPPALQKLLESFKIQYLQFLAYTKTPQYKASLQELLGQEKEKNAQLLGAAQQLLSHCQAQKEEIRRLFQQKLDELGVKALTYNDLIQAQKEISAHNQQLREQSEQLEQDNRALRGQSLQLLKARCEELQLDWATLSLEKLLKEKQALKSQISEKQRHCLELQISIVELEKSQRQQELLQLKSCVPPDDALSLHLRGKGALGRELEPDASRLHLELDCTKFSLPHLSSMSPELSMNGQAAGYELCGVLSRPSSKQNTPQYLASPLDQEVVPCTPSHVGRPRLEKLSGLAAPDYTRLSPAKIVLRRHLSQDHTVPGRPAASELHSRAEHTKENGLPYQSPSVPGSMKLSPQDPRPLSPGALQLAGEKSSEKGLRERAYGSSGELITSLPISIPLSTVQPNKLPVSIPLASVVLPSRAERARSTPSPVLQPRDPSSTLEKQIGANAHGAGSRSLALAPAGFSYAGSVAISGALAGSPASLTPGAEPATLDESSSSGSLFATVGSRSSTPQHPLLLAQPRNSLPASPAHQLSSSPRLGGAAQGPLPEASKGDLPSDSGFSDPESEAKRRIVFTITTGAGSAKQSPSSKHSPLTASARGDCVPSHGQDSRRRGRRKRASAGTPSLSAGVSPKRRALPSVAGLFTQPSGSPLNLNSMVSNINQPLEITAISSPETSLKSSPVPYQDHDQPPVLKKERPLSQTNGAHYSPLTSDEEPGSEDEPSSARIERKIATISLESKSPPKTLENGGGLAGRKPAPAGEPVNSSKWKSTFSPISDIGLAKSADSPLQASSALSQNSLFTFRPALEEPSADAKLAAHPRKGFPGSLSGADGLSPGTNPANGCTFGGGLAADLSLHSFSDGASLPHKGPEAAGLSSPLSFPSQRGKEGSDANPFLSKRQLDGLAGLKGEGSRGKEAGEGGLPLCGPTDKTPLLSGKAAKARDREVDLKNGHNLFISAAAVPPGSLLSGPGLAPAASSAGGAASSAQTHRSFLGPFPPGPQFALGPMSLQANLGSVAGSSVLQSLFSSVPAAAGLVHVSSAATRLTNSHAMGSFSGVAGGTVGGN

DOT1L:CRBN = DOT1L:CRBN (Homo sapiens, UniProt Q8TEK3+Q96SW2); experiment: DOT1L:CRBN-DDB1 dimerization assay (AlphaScreen); format: binding; conditions: FIG. 2, GST-CRBN-DDB1 and 6xHIS DOT1L 125 nM
Procedure: Example 14: DOT1L:Cereblon (CRBN)-DNA Damage-Binding Protein 1 (DDB1)/DOT1L Dimerization Assay
GST-CRBN-DDB1 and DOT1L (6×HIS-tagged) were both diluted to 125 nM in assay buffer (50 mM 2-[4-(2-Hydroxyethyl)piperazin-1-yl]ethane-1-sulfonic acid (HEPES) pH 7.4, 150 mM NaCl, and 0.01% Tween®, 2, 0.1% bovine serum albumin (BSA)), and 20 μL of protein mixture was added to each well of a 384-well AlphaPlate™ (PerkinElmer®). Compounds were then added at 100 nL per well from DMSO stock plates using a Janus®, Workstation (PerkinElmer®). Following a 1-hour incubation at room temperature, 20 μL Nickel Chelate AlphaLISA® Acceptor and Glutathione AlphaLISA® Donor beads (PerkinElmer®) diluted to 20 ng/μl in assay buffer was added to each well. After a 1-hour incubation at room temperature, luminescence was measured on the Envision® 2104 plate reader (PerkinElmer®). Data were analyzed and plotted using GraphPad PRISM v6 and dimerization amplitude, mean, and s.d. values were determined using the ‘Gaussian’ analysis module.
DOT1L:CRBN dimerization by inventive bifunctional compounds 2, 3, and 6, and pomalidomide and EPZ5676 was assessed by AlphaScreen® assay.

MV411 cells = experiment: Cell proliferation assay in MV411 cells (trypan blue cell counts); format: cell-based, human; conditions: FIG. 5B, 10B
Procedure: Example 16: Cell Proliferation Assays in MV411 (Human Myelomonocytic Leukemia) Cells with Inventive Bifunctional Compounds
MV411 cells were seeded into a 6-well plate at a density of 0.25×10^6 cells/well and then treated compounds with indicated concentration and incubated for the indicated times. After staining with trypan blue, cell counts were performed using a Countess® II FL Automated Cell Counter (ThermoFisher Scientific).

SEMK2 cells = experiment: Cell proliferation assay in SEMK2 cells (trypan blue cell counts); format: cell-based; conditions: FIG. 11
Procedure: Example 17: Cell Proliferation Assays in SEMK2 (B Acute Lymphoblastic Leukemia) Cells with Inventive Bifunctional Compounds
SEMK2 cells were seeded into a 6-well plate at a density of 0.25×10^6 cells/well and then treated compounds with indicated concentration and incubated for the indicated times. After staining with trypan blue, cell counts were performed using a Countess® II FL Automated Cell Counter (ThermoFisher Scientific).

THP1 cells = experiment: Cell proliferation assay in THP1 cells (trypan blue cell counts); format: cell-based; conditions: FIG. 12
Procedure: Example 18: Cell Proliferation Assays in THP1 (Acute Monocytic Leukemia) Cells with Inventive Bifunctional Compounds
THP1 cells were seeded into a 6-well plate at a density of 0.25×10^6 cells/well and then treated compounds with indicated concentration and incubated for the indicated times. After staining with trypan blue, cell counts were performed using a Countess® II FL Automated Cell Counter (ThermoFisher Scientific).

DOT1L [2] = target: T1, DOT1L; experiment: Western blot of DOT1L degradation in MV411 cells; format: cell-based; design: endogenous in cells; conditions: FIG. 5A, 10A
Target sequence in this assay (Q8TEK3 whole entry): as the sequence (Q8TEK3 whole entry, species assumed) above

DOT1L [3] = target: T1, DOT1L; experiment: Western blot of DOT1L degradation in EOL1 cells; format: cell-based; design: degraded DOT1L in EOL1 cells; endogenous in cells; host or cells: EOL1; conditions: FIG. 4A, 6A, 9A
Target sequence in this assay (Q8TEK3 whole entry): as the sequence (Q8TEK3 whole entry, species assumed) above

DOT1L:CRBN, sequence (Q8TEK3 whole entry, species assumed): as above
DOT1L:CRBN, sequence (Q96SW2 whole entry, species assumed): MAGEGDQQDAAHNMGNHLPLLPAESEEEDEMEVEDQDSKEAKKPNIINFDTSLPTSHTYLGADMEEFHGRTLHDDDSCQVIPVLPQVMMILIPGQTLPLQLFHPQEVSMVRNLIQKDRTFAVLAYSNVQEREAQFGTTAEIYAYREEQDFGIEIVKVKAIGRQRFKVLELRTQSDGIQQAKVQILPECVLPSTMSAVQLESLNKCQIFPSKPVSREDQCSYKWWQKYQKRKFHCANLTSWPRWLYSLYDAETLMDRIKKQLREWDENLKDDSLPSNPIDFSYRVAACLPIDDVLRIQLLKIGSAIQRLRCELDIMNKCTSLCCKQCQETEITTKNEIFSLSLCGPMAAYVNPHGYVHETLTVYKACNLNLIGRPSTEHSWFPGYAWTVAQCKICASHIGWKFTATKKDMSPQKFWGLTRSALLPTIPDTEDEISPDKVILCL
DOT1L:CRBN, sequence (Q16531 whole entry partner, species assumed): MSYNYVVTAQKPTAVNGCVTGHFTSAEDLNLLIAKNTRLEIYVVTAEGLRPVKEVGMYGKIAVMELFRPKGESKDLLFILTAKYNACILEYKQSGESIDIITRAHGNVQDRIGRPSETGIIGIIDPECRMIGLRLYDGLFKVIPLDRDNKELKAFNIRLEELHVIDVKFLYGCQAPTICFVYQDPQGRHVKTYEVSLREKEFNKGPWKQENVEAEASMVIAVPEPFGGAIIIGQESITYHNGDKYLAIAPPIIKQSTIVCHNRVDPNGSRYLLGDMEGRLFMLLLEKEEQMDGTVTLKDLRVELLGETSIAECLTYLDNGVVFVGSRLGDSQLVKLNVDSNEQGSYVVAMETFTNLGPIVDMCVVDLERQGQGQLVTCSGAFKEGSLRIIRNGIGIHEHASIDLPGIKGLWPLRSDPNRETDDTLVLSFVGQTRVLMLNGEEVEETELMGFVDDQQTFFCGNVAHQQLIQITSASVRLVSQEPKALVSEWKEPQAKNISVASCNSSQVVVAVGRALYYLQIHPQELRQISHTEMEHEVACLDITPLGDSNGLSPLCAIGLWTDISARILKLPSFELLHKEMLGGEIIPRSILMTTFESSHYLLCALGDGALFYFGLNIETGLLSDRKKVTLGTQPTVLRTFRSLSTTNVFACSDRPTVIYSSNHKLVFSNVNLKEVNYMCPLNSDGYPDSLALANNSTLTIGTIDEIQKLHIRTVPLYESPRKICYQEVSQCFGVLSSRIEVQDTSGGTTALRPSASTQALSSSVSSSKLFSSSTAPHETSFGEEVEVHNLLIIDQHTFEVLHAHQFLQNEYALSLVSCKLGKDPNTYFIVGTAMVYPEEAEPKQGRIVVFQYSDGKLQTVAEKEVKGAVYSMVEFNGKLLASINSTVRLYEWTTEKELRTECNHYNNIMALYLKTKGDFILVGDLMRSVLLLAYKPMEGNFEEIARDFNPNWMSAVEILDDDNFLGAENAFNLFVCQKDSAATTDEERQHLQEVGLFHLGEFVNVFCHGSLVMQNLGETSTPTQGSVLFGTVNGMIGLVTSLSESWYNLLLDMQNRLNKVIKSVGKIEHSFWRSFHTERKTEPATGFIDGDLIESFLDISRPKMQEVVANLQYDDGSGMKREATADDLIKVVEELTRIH

SMILES	EOL1 cell viability (EOL1 cells)	DOT1L binding via displacement of FITC-probe in FP assay (DOT1L [1])	formation of ternary complexes between DOT1L and CRBN (DOT1L:CRBN)	MV411 cell viability (MV411 cells)	SEMK2 cell viability (SEMK2 cells)	THP1 cell viability (THP1 cells)	DOT1L degradation in MV411 cells (DOT1L [2])	DOT1L degradation in EOL1 cells (DOT1L [3])
CC(C)N(C[C@H]1O[C@@H](n2ccc3c(NCCCCNC(=O)CCCCCCCCCCCCCCCNc4cccc5c4C(=O)N(C4CCC(=O)NC4=O)C5=O)ncnc32)[C@H](O)[C@@H]1O)C1CC(CCc2nc3cc(C(C)(C)C)ccc3[nH]2)C1 (stereo partly drawn) [Compound 5, N-(4-((7-((2R,3R,4S,5R)-5-(((3-(2-(5-(tert-butyl)-1H-benzo[d]imidazol-2-yl)ethyl)cyclobutyl)(isopropyl)amino)methyl)-3,4-dihydroxytetrahydrofuran-2-yl)-7H-pyrrolo[2,3-d]pyrimidin-4-yl)amino)butyl)-16-((2-(2,6-dioxopiperidin-3-yl)-1,3-dioxoisoindolin-4-yl)amino)hexadecanamide]	did not reduce EOL1 cell viability in a dose dependent manner and at early time points							
CC(C)N(CCCNC(=O)Nc1ccc(C(C)(C)C)cc1)C[C@H]1O[C@H](n2cnc3c(NCCCCNC(=O)CCCCCCCCCCCCCCCNc4cccc5c4C(=O)N(C4CCC(=O)NC4=O)C5=O)ncnc32)[C@H](O)[C@@H]1O (stereo partly drawn) [Compound 6, N-(4-((9-((2S,3R,4S,5R)-5-(((3-(3-(4-(tert-butyl)phenyl)ureido)propyl)(isopropyl)amino)methyl)-3,4-dihydroxytetrahydrofuran-2-yl)-9H-purin-6-yl)amino)butyl)-16-((2-(2,6-dioxopiperidin-3-yl)-1,3-dioxoisoindolin-4-yl)amino)hexadecanamide]	reduced EOL1 cell viability in a dose dependent manner and at early time points	bound DOT1L via displacement of fluorescein isothiocyanate (FITC)-probe in FP assay	induced the formation of ternary complexes between the DOT1L and CRBN	reduced MV411 cell viability in a dose dependent manner and at early time points	reduced SEMK2 cell viability in a dose dependent manner and at early time points	reduced THP1 cell viability in a dose dependent manner and at early time points	degraded DOT1L in MV411 cells and in a dose dependent manner up to 5.0 μM	degraded DOT1L in EOL1 cells and in a dose dependent manner up to 5.0 μM
CC(C)N(C[C@H]1O[C@@H](n2cnc3c(NCCCCNC(=O)CCCCCCCCCCCCCCCNc4cccc5c4C(=O)N(C4CCC(=O)NC4=O)C5=O)ncnc32)[C@H](O)[C@@H]1O)C1CC(CCc2nc3cc(C(C)(C)C)ccc3[nH]2)C1 (some centres unmarked) [Compound 3]	reduced EOL1 cell viability in a dose dependent manner and at early time points	bound DOT1L via displacement of fluorescein isothiocyanate (FITC)-probe in FP assay	induced the formation of ternary complexes between the DOT1L and CRBN					degraded DOT1L in EOL1 cells and in a dose dependent manner up to 5.0 μM
Cc1ncsc1-c1ccc(CNC(=O)[C@H]2C[C@H](O)CN2C(=O)[C@H](NC(=O)CCCCCCCNC(=O)CCCC(=O)NCCCCNc2ncnc3c2ncn3[C@@H]2O[C@H](CN(C(C)C)C3CC(CCc4nc5cc(C(C)(C)C)ccc5[nH]4)C3)[C@@H](O)[C@H]2O)C(C)(C)C)cc1 (stereo partly drawn) [Compound 4, N1-(4-((9-((2R,3R,4S,5R)-5-(((3-(2-(5-(tert-butyl)-1H-benzo[d]imidazol-2-yl)ethyl)cyclobutyl)(isopropyl)amino)methyl)-3,4-dihydroxytetrahydrofuran-2-yl)-9H-purin-6-yl)amino)butyl)-N5-(8-(((R)-1-((2R,4S)-4-hydroxy-2-((4-(4-methylthiazol-5-yl)benzyl)carbamoyl)pyrrolidin-1-yl)-3,3-dimethyl-1-oxobutan-2-yl)amino)-8-oxooctyl)glutaramide]	did not reduce EOL1 cell viability in a dose dependent manner							
CC(C)N(C[C@H]1O[C@@H](n2cnc3c(NCCCCNC(=O)CCCCCCCCCCCCCCCNc4cccc5c4C(=O)N(C4CCC(=O)NC4=O)C5=O)ncnc32)[C@H](O)[C@@H]1O)C1CC(CCc2nc3cc(C(C)(C)C)ccc3[nH]2)C1 (stereo partly drawn) [Compound 2, N-(4-((9-((2R,3R,4S,5R)-5-((3-(2-(5-(tert-butyl)-1H-benzo[d]imidazol-2-yl)ethyl)cyclobutyl)(isopropyl)amino)methyl)-3,4-dihydroxytetrahydrofuran-2-yl)-9H-purin-6-yl)amino)butyl)-16-((2-(2,6-dioxopiperidin-3-yl)-1,3-dioxoisoindolin-4-ylamino)hexadecanamide]	reduced EOL1 cell viability in a dose dependent manner and at early time points	bound DOT1L via displacement of fluorescein isothiocyanate (FITC)-probe in FP assay	induced the formation of ternary complexes between the DOT1L and CRBN	reduced MV411 cell viability in a dose dependent manner and at early time points			degraded DOT1L in MV411 cells and in a dose dependent manner up to 10.0 μM	degraded DOT1L in EOL1 cells and in a dose dependent manner up to 2.5 μM
